Laboratory results reported in a compilation of properties of binary mixtures (doi:10.1016/j.jtice.2024.105468).

Experiment: xn = mol fraction of the nth substance listed
Details: 100 kPa

CCCC[n+]1ccn(C)c1.[Br-] + COCCO
viscosity [mPa·s]
Details	x1 = 0.1002	x1 = 0.1999	x1 = 0.3002	x1 = 0.4	x1 = 0.5	x1 = 0.5999	x1 = 0.7002	x1 = 0.8	x1 = 0.8975	x1 = 1
298.15 K	10	34	74.5	124	179	247	–	527	843	1451
303.15 K	6.65	19.6	41.1	68.9	–	139	192	280	447	837
308.15 K	5.03	13	26.9	–	63.6	86.3	114	162	256	506
313.15 K	3.71	8.79	17.5	–	–	55.5	–	106	167	330

COCCO + CCCC[n+]1ccn(C)c1.[Br-]
x2 = 0
Details	viscosity [mPa·s]
298.15 K	1.57
303.15 K	1.5
308.15 K	1.35
313.15 K	1.23
